From US20250230151A1, “COMPOUNDS FOR CANCERS DRIVEN BY BRAF MUTATION” (THE BOARD OF TRUSTEES OF THE UNIVERSITY OF ILLINOIS, priority 2021, published 2025)
Read-outs that look alike come from different tables or passages of the source.

Key:
[1] = test system: A375 cells; experiment: 72-hour cell viability assay (Alamar Blue), A375; format: cell-based, human; details: Homo sapiens, A-375; 72-hour incubation, Alamar Blue, V600E BRAF
Method: (§1) Cell Culture and reagents. All cell lines were grown in a 37° C., 5% CO2, humidified environment, in media containing 1% penicillin/streptomycin. Cell culture conditions are as follows: MDCK cells transfected with MDR1 (or ABCB1) were obtained from the Netherlands Cancer Institute (Amsterdam, The Netherlands) and maintained in DMEM with 10% fetal bovine serum (FBS, Gemini). Traditional cell lines A375, CHL-1, B16F10, and U118MG were grown in DMEM with 10% FBS, SK-MEL-28, U87 and T98G in EMEM with 10% FBS, AM-38 in EMEM with 20% HI-FBS (Gibco), HT29 in McCoy's 5A with 10% FBS, HCT116 in RPMI with 10% FBS. Compounds were dissolved in DMSO (1% final concentration, Sigma-Aldrich) for cell culture studies.
(§2) Cell viability assays. Cells were harvested, seeded in a 96-well plate and allowed to adhere overnight. Compound was added to each well in DMSO (1% final concentration). Cells were incubated for 72 hours before viability was assessed by the Alamar Blue Assay. Raptinal ([…]) was used as a dead control.

[2] = test system: HT29 cells; experiment: 72-hour cell viability assay (Alamar Blue), HT29; format: cell-based; details: Homo sapiens, HT-29, V600E BRAF, colon
Method: as §1, §2

[3] = test system: AM-38 cells; experiment: 72-hour cell viability assay (Alamar Blue), AM-38; format: cell-based; details: Homo sapiens, AM-38, V600E BRAF, glioma
Method: as §1, §2

[4] = test system: HCT116 cells; experiment: 72-hour cell viability assay (Alamar Blue), HCT116; format: cell-based; details: Homo sapiens, HCT-116, WT BRAF
Method: as §1, §2

[5] = test system: CHL-1 cells; experiment: 72-hour cell viability assay (Alamar Blue), CHL-1; format: cell-based; details: Homo sapiens, CHL-1, WT BRAF
Method: as §1, §2

[6] = test system: B16F10 cells; experiment: 72-hour cell viability assay (Alamar Blue), B16F10; format: cell-based; details: Mus musculus, B16-F10, WT BRAF, read-out: B16F10 IC50
Method: as §1, §2

[7] = test system: T98G cells; experiment: 72-hour cell viability assay (Alamar Blue), T98G; format: cell-based; details: Homo sapiens, T98G, WT BRAF, read-out: T98G IC50
Method: as §1, §2

[8] = test system: U118MG cells; experiment: 72-hour cell viability assay (Alamar Blue), U118MG; format: cell-based; details: Homo sapiens, U-118-MG, WT BRAF
Method: as §1, §2

[9] = test system: U87 cells; experiment: 72-hour cell viability assay (Alamar Blue), U87; format: cell-based; details: Homo sapiens, WT BRAF
Method: as §1, §2

[10] = target: T1, P-gp (Homo sapiens, UniProt P08183); experiment: MDR1-MDCK P-gp transwell bidirectional transport assay; format: in vitro ADME; details: dog, MDCK-MDR1, MDR1-MDCK, 10 μM, 90 min
T1 construct: host or cells: MDCK (MDR1-MDCK)
T1 sequence (P08183 whole entry): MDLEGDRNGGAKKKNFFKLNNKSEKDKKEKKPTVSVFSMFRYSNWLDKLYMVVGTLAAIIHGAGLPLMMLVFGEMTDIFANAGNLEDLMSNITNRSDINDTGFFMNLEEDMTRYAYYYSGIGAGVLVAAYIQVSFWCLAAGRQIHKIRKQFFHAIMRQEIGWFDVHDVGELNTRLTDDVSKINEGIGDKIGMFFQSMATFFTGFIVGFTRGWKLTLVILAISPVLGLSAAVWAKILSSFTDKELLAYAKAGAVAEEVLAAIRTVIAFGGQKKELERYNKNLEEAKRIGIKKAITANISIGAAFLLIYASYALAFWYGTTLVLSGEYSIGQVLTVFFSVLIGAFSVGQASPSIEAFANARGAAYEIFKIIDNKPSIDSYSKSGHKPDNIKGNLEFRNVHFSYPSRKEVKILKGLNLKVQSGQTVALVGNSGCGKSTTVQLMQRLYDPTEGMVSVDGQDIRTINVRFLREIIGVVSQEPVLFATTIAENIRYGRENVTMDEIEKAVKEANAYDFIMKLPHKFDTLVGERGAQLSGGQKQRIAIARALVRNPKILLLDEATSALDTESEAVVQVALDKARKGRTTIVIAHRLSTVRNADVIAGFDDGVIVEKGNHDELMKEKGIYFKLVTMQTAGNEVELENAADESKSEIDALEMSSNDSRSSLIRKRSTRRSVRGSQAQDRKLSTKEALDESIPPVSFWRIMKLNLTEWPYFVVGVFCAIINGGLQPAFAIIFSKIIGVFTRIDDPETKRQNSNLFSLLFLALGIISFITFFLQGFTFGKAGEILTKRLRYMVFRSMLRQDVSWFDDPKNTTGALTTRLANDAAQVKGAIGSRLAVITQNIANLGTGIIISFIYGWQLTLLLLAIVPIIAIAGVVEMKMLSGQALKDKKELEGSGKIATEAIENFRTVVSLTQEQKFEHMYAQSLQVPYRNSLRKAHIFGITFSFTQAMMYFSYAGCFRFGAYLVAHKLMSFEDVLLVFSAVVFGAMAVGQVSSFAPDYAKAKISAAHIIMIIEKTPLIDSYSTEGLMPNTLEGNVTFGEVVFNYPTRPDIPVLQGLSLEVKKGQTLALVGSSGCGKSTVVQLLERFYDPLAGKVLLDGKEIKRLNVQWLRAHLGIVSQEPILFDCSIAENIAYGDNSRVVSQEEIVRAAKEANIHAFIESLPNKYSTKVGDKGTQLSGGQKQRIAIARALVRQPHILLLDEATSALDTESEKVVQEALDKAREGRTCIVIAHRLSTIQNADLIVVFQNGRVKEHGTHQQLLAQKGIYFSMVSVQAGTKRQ
Method: A novel compound collection composed of complex and diverse compounds derived from natural products, termed “Complexity-to-Diversity Collection” was employed. […] The CtD compounds were evaluated by the efflux pump and their permeability using the P-gp transwell assay using adapted and optimized known protocols. Compound transport across epithelial cells overexpressing P-gp from basolateral-to-apical and apical-to-basolateral directions were quantified to calculate permeability and efflux ratio.
P-gp transwell bidirectional transport assays. Unless noted otherwise, the transport assay was performed in triplicate in batches of 16 or 24 test compounds, with each batch containing quinidine as a substrate control and propranolol as a non-substrate control. MDR1-MDCK cells were plated at a density of 300,000 cells/cm^2 onto 96-well Falcon™ Multiwell Insert System with 1 µm pore polycarbonate filters with angled-bottom receiver plates (Coming) and were fed with the cell growth medium on day 2.
The donor solution was prepared by adding 1 mM DMSO stocks of compounds to make the final concentration […], and the receiver solution was prepared with equivalent volume of DMSO to make 1% DMSO in final assay chamber volumes.
After 80-96 hours since seeding, the growth media on both sides was aspirated. To the transwell plate (apical side), 50 μL of receiver and donor solutions prepared on a 96-well plate were added, and it was placed on top of a separate angled-bottom 96-well plate (basolateral side) containing 260 μL of receiver and donor solutions.
Following 90 minutes of incubation at 37° C. with shaking at 90 rpm, 20 μL aliquot of samples were taken from both the donor and receiver chambers, and the apical and basolateral sides. Aliquots of 4 test compounds were pooled for each category: apical-donor, apical-receiver, basolateral-donor, basolateral-receiver. To measure CO and mass balance, initial donor samples from both apical and basolateral side were set aside from the assay plate. Acetonitrile twice the volume of pooled samples was added and mixed thoroughly, and precipitated proteins were removed by centrifugation at 20,000 r.c.f for 10 minutes.
To ascertain the MDCK monolayer integrity, the solution on apical side contained 100 µM Lucifer Yellow (Millipore-Sigma). After 90 minutes of compound transport, Lucifer Yellow concentration in the basal well was measured using SpectraMax M3 (Molecular Devices) set to an excitation wavelength of 430 nm and an emission wavelength of 540 nm.
Samples were analyzed with the 5500 QTRAP LC/MS/MS system (AB Sciex) with a 1200 series HPLC system (Agilent Technologies) including a degasser, an autosampler, and a binary pump. The liquid chromatography separation was performed on an Agilent SB-Aq column (4.6×50 mm, 5 μm) (Agilent Technologies) with mobile phase A (0.1% formic acid in water) and mobile phase B (0.1% formic acid in acetonitrile). The flow rate was 0.3 ml min^−1. The linear gradient was optimized for each compound. The autosampler was set at 5° C. The injection volume was 15 μL. Mass spectra were acquired with both positive electrospray ionization at the ion spray voltage of 5,500 V and negative electrospray ionization at the ion spray voltage of −4,500 V. The source temperature was 450° C. The curtain gas, ion source gas 1, and ion source gas 2 were 33, 50 and 65, respectively. Multiple reaction monitoring was used to quantify metabolites.
Efflux data calculations.

## CCCS(=O)(=O)Nc1ccc(F)c(C(=O)c2c[nH]c3ncc(-c4ccc(Cl)cc4)cc23)c1F [Vemurafenib, reference compound]
[1]
  IC50: 0.331 ± 0.093 µM
[2]
  IC50: 0.24 ± 0.0617 µM
[3]
  IC50: 0.344 ± 0.0593 µM
[4]; colon, read-out: HCT116 (WT) IC50
  IC50: 27 µM
[4]; read-out: HCT116 IC50
  IC50: > 10 µM
[5]; melanoma, read-out: CHL-1 (WT) IC50
  IC50: > 10 µM
[5]; read-out: CHL-1 IC50
  IC50: > 10 µM
[6]
  IC50: > 10 µM
[7]
  IC50: > 10 µM
[8]; glioma, read-out: U118MG (WT) IC50
  IC50: > 10 µM
[8]; read-out: U118MG IC50
  IC50: > 10 µM
[9]; U-87 MG, read-out: U87 IC50
  IC50: > 10 µM
[9]; glioma, read-out: U87 (WT) IC50
  IC50: > 10 µM
[10]
  Papp A→B at 90 min, 10 µM: 0.667 ± 0.11 ×10⁻⁶ cm/s
  Papp B→A at 90 min, 10 µM: 3.81 ± 0.063 ×10⁻⁶ cm/s
[10]; read-out: ER (efflux ratio) (converted)
  efflux ratio at 90 min, 10 µM: 5.92 ± 0.77
